Article PMC10025480 (Frontiers in Pharmacology, 2023)
Like-named read-outs stand apart in the source and are kept apart here.

Key:
[1] = test system: CF-HBE cells; experiment: Intracellular Ca2+ measurement (Calcium6), IL-13 pre-treated CF-HBE at ALI; assay type: cell-based, human; details: for direct effect on baseline [Ca2+]i: apical addition; for UTP-stimulated elevation of [Ca2+]i: pre-treatment
Procedure: CF-HBE cultured at air-liquid interface for 14–21 days were pre-treated with IL-13 (10 ng/mL; 48 h). CF-HBE were then loaded with the Ca^2+-sensitive fluorescent reporter dye, Calcium6 for 120 min at 37°C in Hanks balanced salt solution (HBSS) buffered with 20 mM HEPES (pH 7.4). […] The direct effects of apically administered TMEM16A blockers on [Ca^2+]i as well as effects on the subsequent responses to UTP were measured using a PHERAstar plate reader (BMG Lab Tech, United Kingdom). Equivalent measurements were performed in FRT-TMEM16Aabc cells that had been cultured in 96 well, clear bottom plastic plates and loaded with Calcium6 using the same protocol.

[2] = test system: panel of 22 functional GPCR assays; experiment: SelectScreen cell-based GPCR assay panel; details: 10 µM
From the text: Profiling of compound activity versus a select panel of diverse GPCRs was undertaken by ThermoFisher Scientific (United Kingdom) via their SelectScreen cell-based GPCR assay panel. Detailed experimental protocols on this assay platform can be found at (https://www.thermofisher.com/content/dam/LifeTech/migration/en/filelibrary/services/discovery-research/pdfs.par.36410.file.dat/sscg-brochure.pdf). Briefly these assays detect agonist or antagonist activity using cell lines with the GPCR of interest over-expressed, driving the expression of a reporter gene encompassing a mammalian-optimized Beta-lactamase. Test compounds are incubated with the specific cell lines at the defined final concentration for 5 or 16 h (depending on the cell line specifics) before quantification of effect.

[3] = biological target: T1, hTMEM16Aabc (Homo sapiens, UniProt Q5XXA6, DEL476-501); experiment: Whole-cell patch clamp (QPatch), FRT-hTMEM16Aabc cells; assay type: cell-based; details: for IC50: [Ca2+]i clamped at 415 nM
T1 construct: expressed in transfected cells
T1 sequence (Q5XXA6 with tags, fused parts or gaps isoform Q5XXA6-5 DEL539-564): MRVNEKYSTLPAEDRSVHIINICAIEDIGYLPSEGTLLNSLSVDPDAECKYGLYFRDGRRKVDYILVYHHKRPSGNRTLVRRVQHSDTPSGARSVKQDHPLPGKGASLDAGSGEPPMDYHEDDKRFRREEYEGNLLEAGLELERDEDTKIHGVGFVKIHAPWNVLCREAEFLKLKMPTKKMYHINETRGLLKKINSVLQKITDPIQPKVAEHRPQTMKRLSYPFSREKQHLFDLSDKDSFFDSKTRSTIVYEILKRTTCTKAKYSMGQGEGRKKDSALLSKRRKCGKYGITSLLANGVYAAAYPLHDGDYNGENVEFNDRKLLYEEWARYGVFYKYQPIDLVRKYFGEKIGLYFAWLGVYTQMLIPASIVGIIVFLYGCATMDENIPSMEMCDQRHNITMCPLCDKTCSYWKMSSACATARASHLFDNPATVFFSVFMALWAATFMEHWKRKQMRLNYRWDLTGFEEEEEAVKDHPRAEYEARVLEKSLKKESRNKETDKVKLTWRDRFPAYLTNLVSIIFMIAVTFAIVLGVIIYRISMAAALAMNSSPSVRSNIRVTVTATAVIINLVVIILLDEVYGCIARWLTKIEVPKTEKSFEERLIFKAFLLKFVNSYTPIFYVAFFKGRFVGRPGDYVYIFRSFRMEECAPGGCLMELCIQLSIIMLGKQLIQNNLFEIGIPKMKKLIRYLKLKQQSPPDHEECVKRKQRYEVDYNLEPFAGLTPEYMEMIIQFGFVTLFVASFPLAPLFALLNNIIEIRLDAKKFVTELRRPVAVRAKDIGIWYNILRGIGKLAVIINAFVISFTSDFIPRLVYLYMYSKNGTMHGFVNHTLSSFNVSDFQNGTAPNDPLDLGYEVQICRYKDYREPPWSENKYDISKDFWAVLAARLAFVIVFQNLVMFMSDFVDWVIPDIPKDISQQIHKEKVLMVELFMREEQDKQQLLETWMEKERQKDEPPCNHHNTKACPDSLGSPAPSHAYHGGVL
Procedure: Current rectification ratios were calculated by dividing the magnitude of the outward current at +90 mV by the magnitude of the inward current at −90 mV.

[4] = biological target: T1, hTMEM16Aabc; experiment: Short-circuit current (ISC), FRT-TMEM16Aabc monolayers in Ussing chambers; assay type: cell-based; details: for UTP-stimulated integrated ISC response (AUC) / UTP-stimulated peak increase in ISC: 5 min pre-treatment, apical, UTP 10 µM, concentration-dependent
Procedure: FRT-hTMEM16Aabc cells were mounted in Ussing chambers in asymmetrical Ringers solutions. The basolateral Ringers contained (in mM): 120 NaCl, 25 NaHCO3, 3.3 KH2PO4, 0.8 K2HPO4, 1.2 CaCl2, 1.2 MgCl2, and 10 glucose. In the apical Ringers solution, NaCl was reduced to 80 mM and 40 mM sodium gluconate was included to establish a Cl^− gradient. The solution osmolarity was between 280 and 300 mosmol kg H2O^−1 and was continuously gassed (5% CO2 in O2; pH 7.4) and maintained at 37°C. Cells were voltage clamped to 0 mV (model EVC4000; WPI) and the short-circuit current (ISC) was measured. Data were recorded using a PowerLab workstation and LabChart software (ADInstruments, Abingdon, Oxon, United Kingdom). TMEM16A blockers were added to the apical side of the epithelium for 5 min before the addition of UTP, that was used to stimulate a TMEM16A-mediated chloride secretory responses.

[5] = test system: CF-HBE cells; experiment: Short-circuit current (ISC), IL-13 pre-treated CF-HBE; assay type: cell-based, human
Procedure: HBE cultured at air-liquid interface (ALI) for 14–21 days were mounted in Ussing chambers in symmetrical Ringers solution containing (in mM): 120 NaCl, 25 NaHCO3, 3.3 KH2PO4, 0.8 K2HPO4, 1.2 CaCl2, 1.2 MgCl2, and 10 glucose, and voltage clamped as described above. In some studies, HBE were pre-treated with IL-13 (10 ng/mL; Peprotech, United Kingdom) for 48 h to increase TMEM16A expression levels ([Caputo et al., 2008]). Amiloride (10 μM; apical) was used to block the spontaneous, ENaC-mediated current, whilst UTP (10 μM; apical) and forskolin (10 μM; apical and basolateral) were added to the bath solutions to activate Ca^2+ and cAMP-dependent anion secretory responses, respectively. Inh172 (30 μM; apical and basolateral) was also used to inhibit CFTR function. The TMEM16A blockers were added to the apical side of the Ussing chambers to evaluate effects on each of these currents.

[6] = after amiloride, 5 min pre-treatment

Q: Which “direct effect on baseline [Ca2+]i” value [1] does the source give for `CCc1oc2ccccc2c1C(=O)c1cc(Br)c(O)c(Br)c1` [benzbromarone] here?
A: immediate and transient increase

Q: What about the “UTP-stimulated elevation of [Ca2+]i” value [1] of the same molecule?
A: attenuated

Q: What about the “number of GPCRs inhibited by ≥ 50%” value [2] of the same molecule?
A: 6

Q: And the IC50 ([3]; IC50 (printed in Figure 1, concentration-response curves), hTMEM16Aabc currents in FRT cells)?
A: 3.05 ± 0.586 µM

Q: And the IC50 ([3]; IC50, inhibition of TMEM16Aabc currents, assessed at +90 mV, FRT cells)?
A: 3 ± 0.6 µM

Q: What about the IC50 ([3]; at −90 mV, FRT cells, read-out: IC50, inhibition of TMEM16Aabc currents) of the same molecule?
A: 1.3 ± 0.3 µM

Q: What about the inhibition at 30 µM ([3]; highest concentration tested, 30 µM, [Ca2+]i 415 nM, read-out: inhibition of TMEM16Aabc current) of the same molecule?
A: 96%

Q: What about the “effect on baseline ISC prior to UTP” value [4] of the same molecule?
A: without effect

Q: What about the “UTP-stimulated integrated ISC response (AUC)” value [4] of the same molecule?
A: attenuated

Q: What about the “UTP-stimulated peak increase in ISC” value [4] of the same molecule?
A: attenuated

Q: And the “direct effect on amiloride-insensitive baseline ISC” value [5]?
A: Neither Ani9 nor benzbromarone had any direct effect

Q: What about the “UTP-stimulated ISC AUC” value [5, 6] of the same molecule?
A: attenuated

Q: And the “UTP-stimulated peak increase in ISC” value [5, 6]?
A: attenuated

Q: With `O=C(Nc1ccc([N+](=O)[O-])cc1Cl)c1cc(Cl)ccc1O` [niclosamide] as the molecule, how does the “direct effect on baseline [Ca2+]i” value [1] read?
A: immediate and transient increase

Q: What about the “UTP-stimulated elevation of [Ca2+]i” value [1] of the same molecule?
A: attenuated

Q: And the “number of GPCRs inhibited by ≥ 50%” value [2]?
A: 11

Q: What about the current reversal potential ([3]; 30 µM, vehicle −12.3 ± 2.0 mV) of the same molecule?
A: −29.8 ± 1.3 mV

Q: And the “effect on TMEM16Aabc currents” value ([3]; bell-shaped response, [Ca2+]i 415 nM)?
A: potentiation of currents at concentrations up to 1.1 µM

Q: And the “transient increase in ISC on addition” value ([4]; 10 µM, vehicle 0.0 ± 0.1)?
A: 4.4 ± 0.3 µAcm^-2

Q: And the “subsequent attenuation of the baseline current” value ([4]; 10 µM, vehicle −0.3 ± 0.1)?
A: −6.7 ± 0.7 µAcm^-2

Q: What about the “UTP-stimulated integrated ISC response (AUC)” value [4] of the same molecule?
A: attenuated

Q: What about the “UTP-stimulated peak increase in ISC” value [4] of the same molecule?
A: attenuated

Q: What about the “immediate, transient increase in ISC” value ([5]; 10 µM, vehicle 0.5 ± 0.2) of the same molecule?
A: 6.8 ± 1.0 µAcm^-2

Q: And the “change to lower baseline ISC than before compound addition” value ([5]; 10 µM, vehicle −0.3 ± 0.1)?
A: −0.9 ± 0.2 µAcm^-2

Q: And the “UTP-stimulated peak increase in ISC” value [5, 6]?
A: attenuated
